From patent US6417159B1 (Queen's University at Kingston, priority 1996, dated 2002)
Entries after “also recorded” stand apart in the source; their conditions may differ.

Legend:
PC12 cells [1] = assay: Binding of [125I]NGF to PC12 cells; set-up: species or system rat; settings: co-incubated with [125I]NGF
Method: (§1) PC12 cells were removed from culture dishes with CMF, washed, and incubated at a concentration of 10^6 per ml in Hepes-Krebs-Ringer (HKR) buffer buffer with 1 mg·ml^−1 BSA for 90 minutes at 37° C. in the presence of 40 pM [^125I]NGF in the absence and presence of excess unlabeled NGF, and in the absence and presence of R3 peptide. Aliquots of 100 μl were removed in replicates and mircocentrifuged at 10,000×g for 1 minute. Supernatants were removed, tips were cut from the microcentrifuge tube and counted in a gamma counter. Specific binding was defined as the difference between binding of the ligand in the absence and presence of unlabeled NGF, and fractional specific binding in the absence and presence of R3 peptide was compared. Studies of [^125I]NGF uptake into PC12 and PC12^nnr5 cells were carried out in the absence and presence of 10 μM R3 peptide and following a 24-hour exposure of PC12 cultures to 10 μM R3 peptide. Cells were eposed to 20 pM or 0.2 nM [^125I]NGF for periods of time up to 240 minutes (steady state) at 37° C. The cells were then briefly acid-washed as described by Bernd and Greene (1984), and aliquots were prepared for gamma counting as described. NGF was radioiodinated as described in Sutter et al. (1979b).

PC12 cells [2] = assay: Uptake of [125I]NGF into PC12 cells; type: cell-based, rat; settings: 20 pM or 0.2 nM [125I]NGF; saturating R3
Method: as §1

ED8 chick DRG neurons = assay: NGF-mediated neurite growth by ED8 chick DRG sensory neurons; type: cell-based
PC12^nnr5 cells = assay: Acid phosphatase assay of cell survival, PC12nnr5 cells; type: cell-based, rat; settings: PC12nnr5 (low-TrkA), serum-free conditions
Method: (§2) This is a colorimetric assay which measures the lysosomal enzyme acid phosphatase to determine cell number (Connolly et al., 1986) modified by Ueda et al. (1994) for use with cultured neuronal cells. Medium was removed gently from PC12 or PC12^nnr5 cells cultured in 96 well plates and well were washed once with 200 μl PBS. Then 100 μl of buffer containing 0.1M sodium acetate pH 5.5, 0.1% TRITON™ X-100, and 10 mM p-nitrophenyl phosphate (Sigma 104 phosphatase substrate) was added to each well. Plates were placed in a 37° C., 5% CO2 incubator for 3 hours. The reaction was stopped by the addition of 10 μl/well of 1N sodium hydroxide and the colour development measured at 405 nm using a microplate reader (Titertek). The first column on each plate contained no cells (buffer only) and was used as a blank. The relationship between cell number and enzyme activity was linear over the range 1000 to 15,000 cells.
(§3) To exclude the possibility that the effects of R3 on neurite growth in the experiments described above were indirect and mediated by an influence on cell survival, PC12 and PC12^nnr5 cells were exposed to serum free conditions in the absence and presences of NGF, and in the absence and presence of R3. […] Nor was there any difference in NGF-mediated survival whether R3 exposure occurred before or at the same time as NGF exposure. […]

[3] = Precipitation out of aqueous solution; type: physicochemical
PC12 cells [4] = assay: Basic fibroblast growth factor-mediated neurite growth by PC12 cells; type: cell-based, rat
TrkA = assay: NGF-mediated TrkA tyrosine phosphorylation in PC12 cells; type: cell-based, rat; settings: prior to or at the time of NGF exposure
Method: FIG. 7B illustrates the influence of peptide R3 on TrkA phosphorylation. PC12 cells were treated with R3 for 30 min or 24 h and suspended in HKR buffer at a concentration of 10^7·ml^−1. NGF (50 ng·ml^−1) was added where indicated and samples incubated for 15 min at 37° C. Cells were subsequently harvested by centrifugation and the pellets dissolved in lysis buffer and immunoprecipitated for TrkA as described. Immunoprecipitated proteins were separated using 7.5% polyacrylamide gels (Laemmli) and transblotted to PVDF membrane. The membrane was processed for anti-phosphotyrosine with HRP-conjugated antibody RC-20 as described by the manufacture's literature (Transduction Laboratories Ltd.).
TrkA phosphorylation was performed by a modification of the method of Kaplan et al. (1991 a and b). PC12 cells were harvested as described and suspended at a concentration of 10^7 ml in HKR buffer. NGF (100 ng·ml^−1) was added and the cell suspension was incubated for 30 min at 37° C. and pelleted at 4° C. The cells were solublized with lysis buffer, and TrkA protein was immunoprecipitated as described. Proteins were fractionated by 7.5% SDS-PAGE, and transferred to nitrocellulose for immunoblot analysis as described (Harlow and Lane, 1988). Phosphoproteins were visualized using anti-phosphotyrosine clone 4G10 (UBI) as described in the supplier's product literature.

PC12 cells [5] = assay: Acid phosphatase assay of cell survival, PC12 cells; type: cell-based, rat; settings: PC12 (high-TrkA), serum-free conditions
Method: as §2, §3

PC12 cells [6] = assay: MTT assay of mitochondrial function; type: cell-based, rat
Method: A colorimetric assay measuring the number and respiratory activity of surviving cells (Mossman, 1983) was used to monitor the effect of the synthetic peptides on PC12 cells. Culture plates (96-233, Flow, flat bottom) were seeded with 4,000 cells per well and received treatment identical to the cells read for neurite formation. At the indicated times, the medium was removed from the wells with a Pasteur pipette and replaced with 110 μl of RPMI+10% fetal calf serum containing 0.45 mg·ml^−1 MTT (Sigma) and the plate were returned to a humidified, 5% CO2 incubator for 4 hours. 100 μl of 0.4N HCl in isopropanol was then added to each well with trituration (approximately 50 times) to solublize the formazan. The plates were read 10 minutes later in a flow Titertek Multiskan equipped with a 570 nm filter, and the optical density values obtained were corrected for cell-free blank. In each experiment, the values are the average of at least triplicate determinations normalized to its control. The MTT dye conversion was linear with number of viable cells over the range seeded, i.e. 2000 to 10,000 cells per well.

## LDALLAALRRIQR [R3]
PC12 cells [1]
  Effect on [125I]NGF binding, in words: no effect on steady-state total or non-displaceable binding
PC12 cells [2]
  Rates of [125I]NGF uptake, in words: not influenced
ED8 chick DRG neurons; (peptide with NGF − NGF alone)/(R3 with NGF − NGF alone) ×100, scored at 43, 44 and 48 hours, M ± SEM, n = 3 assays
  % of Control Response DRG: 100 ± 16%
ED8 chick DRG neurons; ED8 chick DRG neurons, 10 μM R3
  Effect on NGF-mediated neurite growth, co-incubation, in words: enhancing effect; also recorded: markedly increased the response to NGF between 4 and 8 hours
PC12^nnr5 cells
  Influence on NGF-mediated cell survival, in words: no influence on NGF-mediated survival
[3]
  Concentration at which the peptide tended to precipitate out of aqueous solution with time: ≥ 50 µM
PC12 cells [4]
  Influence on basic fibroblast growth factor-mediated neurite growth, in words: no influence
TrkA
  Influence on NGF-mediated tyrosine phosphorylation of TrkA, in words: did not consistently influence
PC12 cells [5]
  Influence on NGF-mediated cell survival, in words: no influence on NGF-mediated survival
PC12 cells [6]
  Mitochondrial succinate dehydrogenase activity (MTT), in words: not enhanced
